Experimental data published in paper PMC7960626, “Phase I study assessing the mass balance, pharmacokinetics, and excretion of [^14C]-pevonedistat, a NEDD8-activating enzyme inhibitor in patients with advanced solid tumors” (Investigational New Drugs, 2020).
“Also recorded” adds a separate entry of the source. Read-outs that look alike come from different tables or passages of the source.

Tests used:
[1] = Whole blood PK and whole blood/plasma partitioning after a single 1-h IV infusion of [^14C]-pevonedistat 25 mg/m^2 (part A); format: in vivo, human; details: for blood plasma ratio: whole blood and plasma, iv, 25 mg/m^2, single 1-h IV infusion 25 mg/m^2
From the text: (§1) This was a two-part (A and B), open-label, multicenter, mass balance, distribution, metabolism, excretion (DME) study in adult patients with advanced solid tumors. […] Patients were required to stay at the part A study site for approximately 8 days or until the discharge criteria were met, with a maximum estimated confinement period of 9–14 days. Upon completion of part A, patients had the option to participate in part B at Medical Center Hungarian Defense Forces, Budapest, Hungary. […] Treatment was administered for 12 cycles or until discontinuation criteria were met.
(§2) Complete urinary and fecal output were collected for analysis of PK (urine) and total radioactivity (urine and feces) throughout the confinement period until discharge criteria were met. Bioanalytical assay methods are shown in the Supplementary Methods. […] In part B, disease assessments were conducted using radiological evaluations (computed tomography [CT] scan or magnetic resonance imaging [MRI], as clinically indicated).
(§3) Non-compartmental analysis using Phoenix™ WinNonlin® version 8.0 (Pharsight Corp., Mountain View, California, USA) was used for estimation of PK parameters for pevonedistat in whole blood, plasma, and urine and for total radioactivity in whole blood, plasma, urine, and feces. The following single-dose PK parameters were derived: maximum plasma concentration (Cmax), area under the concentration–time curve from time 0 to infinity (AUC∞), AUC from time 0 to the last quantifiable concentration (AUC0 − last), terminal disposition phase half-life (t1/2), renal clearance (CLR), clearance (CL), and volume of distribution at steady state (Vss).
(§4) PK data were summarized using descriptive statistics, and the PK and mass balance parameters described in Supplementary Table S1 were calculated by non-compartmental analysis for each individual patient. Safety was assessed in all patients who received at least one dose of pevonedistat, and TEAEs were coded according to the Medical Dictionary for Regulatory Activities (MedDRA), version 20.0. Analysis of efficacy in part B was descriptive; disease response was assessed in all patients who received at least one dose of pevonedistat, had measurable disease (per entry criteria for part B), and had at least one post-baseline disease assessment. Response assessment was done by the investigator using Response Evaluation Criteria in Solid Tumors (RECIST) version 1.1. SAS version 9.4 was used for all statistical analyses. […]
160 All samples were analyzed applying the methods described below:
After vortex mixing for at least 5 sec, the
170 Method for whole blood

[2] = design: method as in PMID 30845347; details: strong and moderate CYP3A inhibitors (itraconazole); cited from earlier work
[3] = system: human colon and lung tumor xenograft models; design: method as in PMID 19509147; details: repeated dosing, immunocompromised mice; cited from earlier work
[4] = Plasma PK after a single 1-h IV infusion of [^14C]-pevonedistat 25 mg/m^2 (part A); format: in vivo, human
From the text: as §1, §2, §3, §4
160 All samples were analyzed applying the methods described below: […]

advanced solid tumors = assay: Disease response by RECIST version 1.1 (part B); format: in vivo, human; details: 7 patients evaluable, with carboplatin/paclitaxel or docetaxel
Method: This was a two-part (A and B), open-label, multicenter, mass balance, distribution, metabolism, excretion (DME) study in adult patients with advanced solid tumors. In part A, patients received a single IV infusion of [^14C]-pevonedistat 25 mg/m^2 (containing approximately 60–85 µCi, or 2.22–3.145 MBq, of total radioactivity) at a single center (Duna Medical Center, Budapest, Hungary). Patients were required to stay at the part A study site for approximately 8 days or until the discharge criteria were met, with a maximum estimated confinement period of 9–14 days. Upon completion of part A, patients had the option to participate in part B at Medical Center Hungarian Defense Forces, Budapest, Hungary. In part B, patients received treatment in 3-week cycles with either: pevonedistat 20 mg/m^2 on days 1, 3, and 5 plus carboplatin AUC5 and paclitaxel 175 mg/m^2 on day 1; or pevonedistat 25 mg/m^2 on days 1, 3, and 5 plus docetaxel 75 mg/m^2 on day 1. Treatment was administered for 12 cycles or until discontinuation criteria were met.
Blood samples were collected for total radioactivity and PK assessments in whole blood and plasma at prespecified time points (pre dose [within 1 h before the start of the pevonedistat infusion], end of infusion, then 0.5, 1, 2, 3, 4, 8, 12, 24, 48, 72, 96, 120, 144 and 168 hours post dose). Complete urinary and fecal output were collected for analysis of PK (urine) and total radioactivity (urine and feces) throughout the confinement period until discharge criteria were met. Bioanalytical assay methods are shown in the Supplementary Methods. Safety was assessed by incidence and severity of TEAEs, vital signs, physical examinations, electrocardiograms, and clinical laboratory tests, and toxicities were graded according to the National Cancer Institute Common Terminology Criteria for Adverse Events (NCI CTCAE), version 4.03. […]
PK data were summarized using descriptive statistics, and the PK and mass balance parameters described in Supplementary Table S1 were calculated by non-compartmental analysis for each individual patient. […]

[5] = human, whole blood, single 1-hr IV infusion 25 mg/m^2, geometric mean (CV), N = 7
[6] = human, plasma, single 1-h IV infusion 25 mg/m^2, geometric mean (CV), N = 7

NS(=O)(=O)OC[C@@H]1C[C@@H](n2ccc3c(N[C@H]4CCc5ccccc54)ncnc32)C[C@@H]1O [Pevonedistat]
clearance classification ([1]; based on whole blood CL vs hepatic blood flow): low clearance drug | blood plasma ratio ([1]; human, mean (SD), N = 7, read-out: Whole blood/plasma AUClast ratio): 42.2 | blood plasma ratio ([1]; human, mean (SD), N = 7, read-out: Whole blood/plasma AUC∞ ratio): 40.8 | blood plasma ratio ([1]; human, mean (SD), N = 7, read-out: Whole blood/plasma Cmax ratio): 31.9 | AUC(0-inf) [1, 5]: 58600 ng·h/mL | AUC(0-t) [1, 5]: 58500 ng·h/mL | Cmax [1, 5]: 6720 ng/mL | clearance [1, 5]: 13.5 mL/min | Vd ([1]; human, whole blood, single 1-hr IV infusion 25 mg/m^2, geometric mean (CV), N = 7, read-out: Vss): 9.1 L | half-life ([1]; human, whole blood, single 1-hr IV infusion 25 mg/m^2, mean (SD), N = 7): 13.9 h | whole blood CL as share of hepatic blood flow ([1]; single dose 25 mg/m^2): approximately 1% | Exposure ratio (AUC∞) of pevonedistat vs. total drug-related material ([1]; whole blood, single 1-h IV infusion 25 mg/m^2, mean): 0.44 | effect of CYP3A inhibitors on pevonedistat exposure [2]: did not indicate clinically meaningful alterations in its PK; also recorded: did not result in clinically meaningful increases in pevonedistat exposure | tumor growth [3]: tumor growth inhibition | CL renal ([4]; human, plasma, iv, 25 mg/m^2): 13.3 mL/min | AUC(0-inf) [4, 6]: 1460 ng·h/mL | AUC(0-t) [4, 6]: 1410 ng·h/mL | Cmax [4, 6]: 218 ng/mL | clearance [4, 6]: 537 mL/min | Vd ([4]; human, plasma, single 1-h IV infusion 25 mg/m^2, geometric mean (CV), N = 7, read-out: Vss): 296 L | half-life ([4]; human, plasma, single 1-h IV infusion 25 mg/m^2, mean (SD), N = 7): 8.4 h | Exposure ratio (AUC∞) of pevonedistat vs. total drug-related material ([4]; plasma, single 1-h IV infusion 25 mg/m^2, mean): 0.41 | CLR as share of pevonedistat total plasma clearance ([4]; single dose 25 mg/m^2): approximately 2.5% | systemic exposure of unchanged pevonedistat as share of drug-related material ([4]; single dose 25 mg/m^2, part A): 41% | best response of partial response (advanced solid tumors): One | best response of stable disease (advanced solid tumors): 5 patients | progressive disease (advanced solid tumors): remaining patient
